Where two headings read alike, the source gives them in different places.
Tests used:
[1] = tested on: E. coli mL308 225; experiment: In Vitro Anti-Bacterial Activity Assay (MIC), gram negative; type: cell-based; details: Escherichia coli, ML308225, 18 h
[2] = tested on: S. aureus RN450; experiment: In Vitro Anti-Bacterial Activity Assay (MIC), gram positive; type: cell-based; details: Staphylococcus aureus, RN450, 18 h
[3] = gram negative bacteria, read-out: Antibiotic Activity Gram − (MIC)
[4] = gram positive bacteria, read-out: Antibiotic Activity Gram + (MIC)
[5] = MIC class, Table 3, read-out: Antibiotic Activity Gram −
[6] = MIC class, Table 3, read-out: Antibiotic Activity Gram +
[7] = MIC class, Table 3 (Continued), read-out: Gram− activity
[8] = MIC class, Table 3 (Continued), read-out: Gram+ activity

| Compound | MIC [1, 3] [µg/mL] | MIC [2, 4] [µg/mL] | MIC [1, 5] [µg/mL] | MIC [2, 6] [µg/mL] | other results |
| --- | --- | --- | --- | --- | --- |
| CC(=O)c1cc(CNCC(C)(C)C)c(O)c2c1C[C@H]1C[C@H]3[C@H](N(C)C)C(O)=C(C(N)=O)C(=O)[C@@]3(O)C(O)=C1C2=O | > 4 | < 4 |  |  |  |
| CN(C)c1cc(CN(Cc2ccn[nH]2)Cc2ccn[nH]2)c(O)c2c1C[C@H]1C[C@H]3[C@H](N(C)C)C(O)=C(C(N)=O)C(=O)[C@@]3(O)C(O)=C1C2=O | > 4 | > 4 |  |  |  |
| CN(C)[C@@H]1C(O)=C(C(N)=O)C(=O)[C@@]2(O)C(O)=C3C(=O)c4c(O)ccc(-c5ccc(NC(=O)c6ccno6)cc5)c4C[C@H]3C[C@@H]12 [IN] |  |  | > 4 | < 4 |  |
| CN(C)[C@@H]1C(O)=C(C(N)=O)C(=O)[C@@]2(O)C(O)=C3C(=O)c4c(O)ccc(Cl)c4[C@](C)(O)[C@H]3C[C@@H]12 | > 4 | < 4 |  |  |  |
| CN(C)[C@@H]1C(O)=C(C(N)=O)C(=O)[C@@]2(O)C(O)=C3C(=O)c4c(ccc(NC(=O)Oc5ccc(F)cc5)c4O)C[C@H]3C[C@@H]12 |  |  |  |  | MIC ([1]; read-out: Gram− activity): > 4 µg/mL; MIC ([2]; read-out: Gram+ activity): > 4 µg/mL |
| CN(C)[C@@H]1C(O)=C(C(N)=O)C(=O)[C@@]2(O)C(O)=C3C(=O)c4c(O)ccc(C#Cc5cccnc5)c4C[C@H]3C[C@@H]12 |  |  |  |  | MIC [1, 7]: < 4 µg/mL; MIC [2, 8]: < 4 µg/mL |
| Cc1ccc(/C=C/c2ccc(O)c3c2C[C@H]2C[C@H]4[C@H](N(C)C)C(O)=C(C(N)=O)C(=O)[C@@]4(O)C(O)=C2C3=O)cc1 [drawing 3345] | < 4 | < 4 |  |  |  |
| CN(CCCC(F)(F)F)Cc1cc(N(C)C)c2c(c1O)C(=O)C1=C(O)[C@]3(O)C(=O)C(C(N)=O)=C(O)[C@@H](N(C)C)[C@@H]3C[C@@H]1C2 | < 4 | < 4 |  |  |  |
| C[C@H]1c2ccc(CNCC(C)(C)C)c(O)c2C(=O)C2=C(O)[C@]3(O)C(=O)C(C(N)=O)=C(O)[C@@H](N(C)C)[C@@H]3[C@@H](O)[C@@H]21 [JG] |  |  | < 4 | < 4 |  |
| C[C@H]1c2c(Br)ccc(O)c2C(=O)C2=C(O)[C@]3(O)C(=O)C(C(N)=O)=C(O)[C@@H](N(C)C)[C@@H]3[C@@H](O)[C@@H]21 | > 4 | > 4 |  |  |  |
| CC(C)CNC(=O)Nc1ccc(-c2ccc(O)c3c2C[C@H]2C[C@H]4[C@H](N(C)C)C(O)=C(C(N)=O)C(=O)[C@@]4(O)C(O)=C2C3=O)cc1 | < 4 | < 4 |  |  |  |
| C[C@H]1c2ccc(/C=C\C(=O)NC(C)(C)C)c(O)c2C(=O)C2=C(O)[C@]3(O)C(=O)C(C(N)=O)=C(O)[C@@H](N(C)C)[C@@H]3[C@@H](O)[C@@H]21 [CU] |  |  | > 4 | > 4 |  |
| CCOC(=O)C(NCc1ccc(OC)c(-c2ccc(O)c3c2C[C@H]2C[C@H]4[C@H](N(C)C)C(O)=C(C(N)=O)C(=O)[C@@]4(O)C(O)=C2C3=O)c1)C(C)C (some centres unmarked) [FX] |  |  | > 4 | < 4 |  |
| CN(C)c1cc(CNC(=O)OCC(Cl)(Cl)Cl)c(O)c2c1C[C@H]1C[C@H]3[C@H](N(C)C)C(O)=C(C(N)=O)C(=O)[C@@]3(O)C(O)=C1C2=O [FI] |  |  | > 4 | < 4 |  |
| CC(=O)/C=C/c1ccc(O)c2c1C[C@H]1C[C@H]3[C@H](N(C)C)C(O)=C(C(N)=O)C(=O)[C@@]3(O)C(O)=C1C2=O | > 4 | < 4 |  |  |  |
| CCc1ccnc(-c2ccc(O)c3c2C[C@H]2C[C@H]4[C@H](N(C)C)C(O)=C(C(N)=O)C(=O)[C@@]4(O)C(O)=C2C3=O)c1 [NZ] |  |  | < 4 | < 4 |  |
| COCC(=O)Nc1cccc(-c2ccc(O)c3c2C[C@H]2C[C@H]4[C@H](N(C)C)C(O)=C(C(N)=O)C(=O)[C@@]4(O)C(O)=C2C3=O)c1 | > 4 | < 4 |  |  |  |

| Compound | MIC [1, 3] [µg/mL] | MIC [2, 4] [µg/mL] | MIC [1, 5] [µg/mL] | MIC [2, 6] [µg/mL] | other results |
| --- | --- | --- | --- | --- | --- |
| CN(C)[C@@H]1C(O)=C(C(N)=O)C(=O)[C@@]2(O)C(O)=C3C(=O)c4c(ccc(CN)c4O)C[C@H]3C[C@@H]12 [AR] |  |  | < 4 | < 4 |  |
| COc1ccc(CNC(C)C)cc1-c1ccc(O)c2c1C[C@H]1C[C@H]3[C@H](N(C)C)C(O)=C(C(N)=O)C(=O)[C@@]3(O)C(O)=C1C2=O [LR] |  |  | < 4 | < 4 |  |
| CCc1cc(CNC(=O)N2CCOCC2)c2c(c1O)C(=O)C1=C(O)[C@]3(O)C(=O)C(C(N)=O)=C(O)[C@@H](N(C)C)[C@@H]3C[C@@H]1C2 | > 4 | > 4 |  |  |  |
| CN(C)[C@@H]1C(O)=C(C(N)=O)C(=O)[C@@]2(O)C(O)=C3C(=O)c4c(O)ccc(-c5ncccn5)c4C[C@H]3C[C@@H]12 | < 4 | < 4 |  |  |  |
| CC1CCN(Cc2cc(N(C)C)c3c(c2O)C(=O)C2=C(O)[C@]4(O)C(=O)C(C(N)=O)=C(O)[C@@H](N(C)C)[C@@H]4C[C@@H]2C3)CC1 | < 4 | < 4 |  |  |  |
| CCCC/C(Cl)=C/c1ccc(O)c2c1C[C@H]1C[C@H]3[C@H](N(C)C)C(O)=C(C(N)=O)C(=O)[C@@]3(O)C(O)=C1C2=O | < 4 | < 4 |  |  |  |
| CN(C)[C@@H]1C(O)=C(C(N)=O)C(=O)[C@@]2(O)C(O)=C3C(=O)c4c(O)ccc(NC5CCN(Cc6ccccc6)CC5)c4C[C@H]3C[C@@H]12 [JN] |  |  | < 4 | < 4 |  |
| CC(C)ONC(C)c1ccc(O)c2c1C[C@H]1C[C@H]3[C@H](N(C)C)C(O)=C(C(N)=O)C(=O)[C@@]3(O)C(O)=C1C2=O (some centres unmarked) | < 4 | < 4 |  |  |  |
| CN(C)[C@@H]1C(O)=C(C(N)=O)C(=O)[C@@]2(O)C(O)=C3C(=O)c4c(O)ccc(C#CC5CCCCC5)c4C[C@H]3C[C@@H]12 |  |  |  |  | MIC [1, 7]: < 4 µg/mL; MIC [2, 8]: < 4 µg/mL |
| CCCCCCOC(=O)NCc1cc(N(C)C)c2c(c1O)C(=O)C1=C(O)[C@]3(O)C(=O)C(C(N)=O)=C(O)[C@@H](N(C)C)[C@@H]3C[C@@H]1C2 [FE] |  |  | > 4 | < 4 |  |
| CN(C)[C@@H]1C(O)=C(C(N)=O)C(=O)[C@@]2(O)C(O)=C3C(=O)c4c(O)ccc(-c5cnccn5)c4C[C@H]3C[C@@H]12 | < 4 | < 4 |  |  |  |
| CN(C)c1cc(CNCC2CCCCC2)c(O)c2c1C[C@H]1C[C@H]3[C@H](N(C)C)C(O)=C(C(N)=O)C(=O)[C@@]3(O)C(O)=C1C2=O [MK] |  |  | < 4 | < 4 |  |
| C[C@H]1c2ccc(-c3ccc(C=O)c4ccccc34)c(O)c2C(=O)C2=C(O)[C@]3(O)C(=O)C(C(N)=O)=C(O)[C@@H](N(C)C)[C@@H]3[C@@H](O)[C@@H]21 | < 4 | < 4 |  |  |  |
| CN(C)c1cc(CNCC23CC4CC(CC(C4)C2)C3)c(O)c2c1C[C@H]1C[C@H]3[C@H](N(C)C)C(O)=C(C(N)=O)C(=O)[C@@]3(O)C(O)=C1C2=O | < 4 | < 4 |  |  |  |
| CC(C)CNCc1cc(N(C)C)c2c(c1O)C(=O)C1=C(O)[C@]3(O)C(=O)C(C(N)=O)=C(O)[C@@H](N(C)C)[C@@H]3C[C@@H]1C2 [drawing 3469] | < 4 | < 4 |  |  |  |
| CC(C)OC(=O)c1cccc(-c2ccc(O)c3c2C[C@H]2C[C@H]4[C@H](N(C)C)C(O)=C(C(N)=O)C(=O)[C@@]4(O)C(O)=C2C3=O)c1 | < 4 | < 4 |  |  |  |
| CN(C)[C@@H]1C(O)=C(C(N)=O)C(=O)[C@@]2(O)C(O)=C3C(=O)c4c(O)ccc(CNC(=O)c5cc(O)ncn5)c4C[C@H]3C[C@@H]12 | > 4 | < 4 |  |  |  |
